According to patent US20050238634A1, “Method, compositions and kits for increasing the oral bioavailability of pharmaceutical agents” (Baker Norton Pharmaceuticals, Inc., priority 1995, published 2005):
Read-outs that look alike come from different tables or passages of the source.

How the values were obtained:
[1] = reports in the literature; cited from earlier work
[2] = male, Sprague-Dawley, rat, in vivo
[3] = 3H-etoposide IV, oral, oral with cyclosporin in rats, whole blood radioactivity (Example 6, NP960102); type: in vivo
[4] = etoposide capsules; cited from earlier work
[5] = Repeated oral co-administration of paclitaxel with CsA, plasma levels; type: in vivo, rats; conditions: repeated regimen
[6] = Sprague Dawley, rat, in vivo
[7] = not given; remark: listed apart in the source
[8] = not given; remark: listed apart in the source
[9] = Sprague Dawley, rat, in vivo; remark: listed apart in the source
metastatic breast cancer = conditions: continuous 96-hour infusion every three weeks; taxane-failure patients; cited from earlier work
in vivo = conditions: Sprague Dawley, rat
[10] = oral; cited from earlier work
[11] = oral 3H-paclitaxel 9 mg/kg, cyclosporin dose 2 × 5 mg/kg oral
[12] = radioactivity of oral 3H-paclitaxel 9 mg/kg, cyclosporin dose 2 × 5 mg/kg oral
[13] = Grp C, etoposide 1/PO with CsA 5/PO before and with
[14] = Sprague Dawley, rat, in vivo, po
[15] = Sprague Dawley, rat, in vivo, po, 9 mg/kg
[16] = total radioactivity, Paclitaxel IV 9 mg/kg

## C/C=C/C[C@@H](C)[C@@H](OC(C)=O)[C@H]1C(=O)N[C@@H](CC)C(=O)N(C)CC(=O)N(C)[C@@H](CC(C)C)C(=O)N[C@@H](C(C)C)C(=O)N(C)[C@@H](CC(C)C)C(=O)N[C@@H](C)C(=O)N[C@H](C)C(=O)N(C)[C@@H](CC(C)C)C(=O)N(C)[C@@H](CC(C)C)C(=O)N(C)[C@@H](C(C)C)C(=O)N1C [Cyclosporin Acetyl A, acetyl cyclosporin A]
[11]
  % Absorption: 25.4%
[12]
  AUC0-24: 8.39 μg eq. hr/ml

## C/C=C/C[C@@H](C)[C@@H](O)[C@H]1C(=O)N[C@@H]([C@@H](C)O)C(=O)N(C)CC(=O)N(C)[C@@H](CC(C)C)C(=O)N[C@@H](C(C)C)C(=O)N(C)[C@@H](CC(C)C)C(=O)N[C@@H](C)C(=O)N[C@H](C)C(=O)N(C)[C@@H](CC(C)C)C(=O)N(C)[C@@H](CC(C)C)C(=O)N(C)[C@@H](C(C)C)C(=O)N1C [Cyclosporin C, cyclosporin C]
[11]
  % Absorption: 34.5%
[12]
  AUC0-24: 11.39 μg eq. hr/ml

## C/C=C/C[C@@H](C)[C@@H](O)[C@H]1C(=O)N[C@@H](C(C)C)C(=O)N(C)CC(=O)N(C)[C@@H](CC(C)C)C(=O)N[C@@H](C(C)C)C(=O)N(C)[C@@H](CC(C)C)C(=O)N[C@@H](C)C(=O)N[C@H](C)C(=O)N(C)[C@@H](CC(C)C)C(=O)N(C)[C@@H](CC(C)C)C(=O)N(C)[C@@H](C(C)C)C(=O)N1C [Cyclosporin D, cyclosporin D]
[1]
  immunosuppressive activity: least immunosuppressive activity

## CCCC[C@@H](C)[C@@H](O)[C@H]1C(=O)N[C@@H](CC)C(=O)N(C)CC(=O)N(C)[C@@H](CC(C)C)C(=O)N[C@@H](C(C)C)C(=O)N(C)[C@@H](CC(C)C)C(=O)N[C@@H](C)C(=O)N[C@H](C)C(=O)N(C)[C@@H](CC(C)C)C(=O)N(C)[C@@H](CC(C)C)C(=O)N(C)[C@@H](C(C)C)C(=O)N1C [Cyclosporin Dihydro A, dihydro cyclosporin A]
[12]
  AUC0-24: 8.5 μg eq. hr/ml

## C/C=C/C[C@@H](C)C[C@H]1C(=O)N[C@@H](CC)C(=O)N(C)CC(=O)N(C)[C@@H](CC(C)C)C(=O)N[C@@H](C(C)C)C(=O)N(C)[C@@H](CC(C)C)C(=O)N[C@@H](C)C(=O)N[C@H](C)C(=O)N(C)[C@@H](CC(C)C)C(=O)N(C)[C@@H](CC(C)C)C(=O)N(C)[C@@H](C(C)C)C(=O)N1C [Cyclosporin F, cyclosporin F]
Oral 3H-paclitaxel 9 mg/kg, cyclosporin dose 2 × 10 mg/kg oral
  AUC0-24: 11.99 μg eq. hr/ml
[12]
  AUC0-24: 8.99 μg eq. hr/ml
Whole blood radioactivity profiles, 5 mg/kg oral before and with paclitaxel 9 mg/kg
  activity in promoting oral absorption of paclitaxel: enhances the oral bioavailability of paclitaxel
[1]
  immunosuppressive activity: does not display immunosuppressive activity

## C/C=C/C[C@@H](C)[C@@H](O)[C@H]1C(=O)N[C@@H](CCC)C(=O)N(C)CC(=O)N(C)[C@@H](CC(C)C)C(=O)N[C@@H](C(C)C)C(=O)N(C)[C@@H](CC(C)C)C(=O)N[C@@H](C)C(=O)N[C@H](C)C(=O)N(C)[C@@H](CC(C)C)C(=O)N(C)[C@@H](CC(C)C)C(=O)N(C)[C@@H](C(C)C)C(=O)N1C [Cyclosporin G, cyclosporin G]
[11]
  % Absorption: 40.0%
[12]
  AUC0-24: 13.22 μg eq. hr/ml

## C/C=C/C[C@@H](C)[C@@H](O)[C@H]1C(=O)N[C@@H](CC)C(=O)N(C)CC(=O)N(C)[C@@H](CC(C)C)C(=O)N[C@@H](C(C)C)C(=O)N[C@@H](CC(C)C)C(=O)N[C@@H](C)C(=O)N[C@H](C)C(=O)N(C)[C@@H](CC(C)C)C(=O)N(C)[C@@H](CC(C)C)C(=O)N(C)[C@@H](C(C)C)C(=O)N1C [Cyclosporin U, cyclosporin U]
[11]
  % Absorption: 15.2%
[12]
  AUC0-24: 5.02 μg eq. hr/ml

## OCCN(CCO)c1nc(N2CCCCC2)c2nc(N(CCO)CCO)nc(N3CCCCC3)c2n1 [Dipyridamole, dipyridamole]
[2]
  t½: 26.6 h

## COc1cc([C@@H]2c3cc4c(cc3[C@@H](O[C@@H]3O[C@@H]5CO[C@@H](C)O[C@H]5[C@H](O)[C@H]3O)[C@H]3COC(=O)[C@H]23)OCO4)cc(OC)c1O [Etoposide, etoposide]
[3]; Grp A, etoposide only 1/IV
  Cmax: 2.16 ug*eq/mL
  t½: 26.5 h
[3]; Grp A, etoposide only 1/IV, total radioactivity
  AUC0-24: 1080 ng·h/mL
[3]; Grp B, etoposide only 1/PO
  AUC0-24: 610 ng·h/mL
  Cmax: 0.03 ug*eq/mL
  F %: 56.5%
  t½: 19.1 h
[3]; [13]
  AUC0-24: 1040 ng·h/mL
  Cmax: 0.12 ug*eq/mL
  F %: 96.3%
  t½: 18.1 h
[3]; Grp C, etoposide 1/PO with CsA 5/PO before and with, listed as etoposide
  F %: about 96%
[4]
  mean value of oral bioavailability: approximately 50%

## CC(=O)N1CCN(c2ccc(OCC3COC(Cn4ccnc4)(c4ccc(Cl)cc4Cl)O3)cc2)CC1 (centres unmarked) [Ketoconazole, ketoconazole]
[2]
  t½: 9.23 h

## CC(=O)O[C@]1(C(C)=O)CC[C@H]2[C@@H]3C=C(C)C4=CC(=O)CC[C@]4(C)[C@H]3CC[C@@]21C [Magace, megestrol acetate]
[2]
  t½: 23.1 h

## CC(=O)O[C@H]1C(=O)[C@@]2(C)[C@H]([C@H](OC(=O)c3ccccc3)[C@]3(O)C[C@H](OC(=O)[C@H](O)[C@@H](NC(=O)c4ccccc4)c4ccccc4)C(C)=C1C3(C)C)[C@]1(OC(C)=O)CO[C@@H]1C[C@@H]2O [Paclitaxel, paclitaxel]
[5]
  steady state plasma levels of paclitaxel achieved: by the third day
[6]
  Absolute F: 0.9%
[7]; NP951001, paclitaxel only 9/IV
  AUC0-24: 32.04 µg·h/mL
[7]; NP951001, paclitaxel only 9/PO
  AUC0-24: 3.24 µg·h/mL
[7]; Sprague Dawley, rat, in vivo, iv
  % Dose in urine (4-24 hr): 2.2%
[7]; [14]
  % Dose in urine (4-24 hr): 1.9%
  AUC0-24: 3.2 μg eq × hr/ml
  Tmax: 25 h
[7]; total radioactivity in blood, IV (A)
  AUC0-24: 32.8 μg eq × hr/ml
[8]; [14]
  F (%) Based on AUC0-00: 16.4%
  F (%) based on AUC0-24 hr: 5.9%
[8]; [15]
  AUC0-00: 4.5 μg equiv. hr/mL
  AUC0-24 hr: 1.4 μg equiv. hr/mL
[8]; [16]
  AUC0-00: 27.4 μg equiv. hr/mL
  AUC0-24 hr: 23.8 μg equiv. hr/mL
[9]; iv
  V: 4.236 L/kg
[9]; po
  AUC0-[…]: 349 ng·h/mL
  F %: 1.7%
  V: 5.029 L/kg
Metastatic breast cancer
  response rate: 27%
In vivo; in vivo, po
  bioavailability: < 1%
In vivo; serum, oral, 9 mg/kg
  AUC(0-t): 80 ng·h/mL
[10]
  absorbed when administered orally: less than 1%

## CC(=O)[C@H]1CC[C@H]2[C@@H]3CCC4=CC(=O)CC[C@]4(C)[C@H]3CC[C@]12C [Progesterone, progesterone]
[2]
  t½: 20.0 h

## dihydro cyclosporin C [Cyclosporin Dihydro C]
[11]
  % Absorption: 45.1%
[12]
  AUC0-24: 13.09 μg eq. hr/ml
